In PMC4598813 (Scientific Reports, 2015):

Key:
total PrP in ScN2a cells = type: cell-based, mouse
PrP^Sc in ScN2a cells = type: cell-based, mouse
ScN2a cells = details: mouse
L2-2B1 cells = details: mouse
PrP^Sc formation = details: cited from earlier work

## CCN(CC)CCCC(C)Nc1c2ccc(Cl)cc2nc2ccc(OC)cc12 (centres unmarked) [Quinacrine]
Total PrP in ScN2a cells
  total PrP level: unaffected
PrP^Sc in ScN2a cells
  PrP^Sc level: completely inhibited
ScN2a cells
  concentration causing cytotoxicity: above 2 μM
L2-2B1 cells
  concentration causing cytotoxicity: above 2 μM
PrP^Sc formation
  optimal concentration found to inhibit PrP^Sc formation: below 4 μM
